Going from CC(C)[C@@H](C)C(=O)O to CC(Cl)C(C)(C)O (configuration not stated), the boiling point falls from 192 °C to 142 °C.

Going from COCC1CO1 (configuration not stated) to CCC1CCNCC1, the boiling point rises from 113 °C to 154 °C.

Going from CCN(C#N)CC to CCN(CC)c1ccccc1, the boiling point rises from 188 °C to 216 °C.

Going from CCCCCC(C)=O to CCCCCCC(=O)CC, the boiling point rises from 151 °C to 190 °C.

Compared with FCCCCCCCl, CCCCCCCCCCCCCCCCBr is higher in boiling point: 168 °C for the first, 336 °C for the second.

Compared with Clc1c(Cl)c(Cl)c2c(c1Cl)Oc1c(Cl)c(Cl)c(Cl)c(Cl)c1O2, ClC(Cl)=C(Cl)Cl is lower in boiling point: 510 °C for the first, 121 °C for the second.

Going from CCOC(=O)CCCC(C)=O to CCCCCOCC, the boiling point falls from 222 °C to 118 °C.

First: CCCCC(C)(C)O
Second: CC1=CCC(C(C)(C)O)CC1 (configuration not stated)
The boiling point of the first is lower: 143 °C for the first, 219 °C for the second.

First: CC(=O)c1ccc(C)c(C)c1
Second: CC(C)(C)C(=O)c1ccccc1
The boiling point of the first is higher: 246 °C for the first, 220 °C for the second.

First: BrC/C=C/CBr
Second: C#CC(O)CCC (configuration not stated)
The boiling point of the first is higher: 203 °C for the first, 142 °C for the second.

Going from CCCCCCCCCCCCCCCCCCCCCCCCCCCCCCC to CCOc1ccccc1OCC, the boiling point falls from 458 °C to 219 °C.

Going from O[C@@H]1C[C@H]2CC[C@@H]1C2 to O=C(Cl)c1ccco1, the boiling point falls from 176 °C to 173 °C.

Compared with CCOc1cccc(C=O)c1O, Nc1cccc2ncccc12 is higher in boiling point: 264 °C for the first, 310 °C for the second.

Compared with CCC(C)[N+](=O)[O-] (configuration not stated), CSCC(C)C is lower in boiling point: 140 °C for the first, 112 °C for the second.

With Cc1cc(O)c(C(C)(C)C)cc1C(C)(C)C the boiling point was 282 °C.

Going from CC(C)[C@@H](C)C(=O)O to C#CCCC(=O)O, the melting point rises from -1.5 °C to 57.7 °C.

Compared with CN(C)C(=S)SSC(=S)N(C)C, Cc1cc(O)c(C(C)(C)C)cc1C(C)(C)C is lower in melting point: 156 °C for the first, 62.1 °C for the second.

Going from O=C(O)C(Cl)(Cl)CCl to ClC(Cl)=C(Cl)Cl, the melting point falls from 65.5 °C to -22.3 °C.

Going from Cc1cc(C)cc(OCC2CNC(=O)O2)c1 (configuration not stated) to CC(=O)c1ccc(C)c(C)c1, the melting point falls from 122 °C to -3 °C.

Compared with Cc1nn(C)c(Oc2ccccc2)c1C=NOCc1ccc(C(=O)OC(C)(C)C)cc1, Cc1ccc(C(=O)COc2c(C(=O)c3ccc(Cl)c(C)c3Cl)c(C)nn2C)cc1 is higher in melting point: 102 °C for the first, 133 °C for the second.

Going from CCN(C#N)CC to CCN(CC)c1ccccc1, the melting point rises from -80.6 °C to -38.8 °C.

Going from CCCCCC(C)=O to CCCCCCC(=O)CC, the melting point rises from -35 °C to -8 °C.

Going from CC(C)(C)C(=O)OCC(=O)[C@@]1(O)CC[C@H]2[C@@H]3CCC4=CC(=O)C=C[C@]4(C)[C@H]3[C@@H](O)C[C@@]21C to CC(=O)OCC(=O)[C@@]12OC(C)(C)O[C@@H]1C[C@H]1[C@@H]3CC(C=O)=C4C=C(OCCCl)CC[C@]4(C)[C@@]3(F)[C@@H](O)C[C@@]12C, the melting point falls from 233 °C to 181 °C.

First: Clc1c(Cl)c(Cl)c2c(c1Cl)Oc1c(Cl)c(Cl)c(Cl)c(Cl)c1O2
Second: CC(=O)Nc1ccc2c(c1)Cc1cc([N+](=O)[O-])ccc1-2
The melting point of the first is higher: 330 °C for the first, 262 °C for the second.

First: CCCCCCCCCCCCCCCCBr
Second: CCCCCCCCCCCCCCCCCCCCCCCCCCCCCCC
The melting point of the first is lower: 18 °C for the first, 67.9 °C for the second.

First: CCCN(CCC)C(=O)COC(=O)c1ccccc1
Second: CCOc1ccccc1OCC
The melting point of the first is lower: 20 °C for the first, 44 °C for the second.

Compared with Cc1c(N=C=O)cccc1N=C=O, CCOc1cccc(C=O)c1O is higher in melting point: 18.3 °C for the first, 67 °C for the second.

Going from N#CC#N to N#C[S-].[Na+], the melting point rises from -27.9 °C to 287 °C.

Going from BrC/C=C/CBr to C#CC(O)CCC (configuration not stated), the melting point falls from 53.4 °C to -80 °C.

Compared with CC#Cc1cc(C)nc(Nc2ccccc2)n1, c1ccc(CNc2[nH]cnc3ncnc2-3)cc1 is higher in melting point: 133 °C for the first, 233 °C for the second.

Compared with O[C@@H]1C[C@H]2CC[C@@H]1C2, C[C@]12CC[C@H](O)C[C@H]1CC[C@@H]1[C@@H]2CC[C@]2(C)[C@@H](C3=CC(=O)OC3)[C@@H](O)C[C@]12O is higher in melting point: 133 °C for the first, 234 °C for the second.

Going from Nc1ccc([N+](=O)[O-])cc1Cl to N#Cc1ccc([N+](=O)[O-])cc1, the melting point rises from 108 °C to 148 °C.

First: CN(C)[C@@H]1C(O)=C(C(N)=O)C(=O)[C@@]2(O)C(O)=C3C(=O)c4c(O)cccc4[C@@](C)(O)[C@H]3[C@H](O)[C@@H]12
Second: CCC(C)C(=O)NC1CCC(=O)N(CCc2ccccc2)C1=O (configuration not stated)
The melting point of the first is higher: 184 °C for the first, 108 °C for the second.

Compared with O=C(O)c1cccnc1, O=C(Cl)c1ccco1 is lower in melting point: 237 °C for the first, -2 °C for the second.

Going from O=S(=O)(Oc1ccc(Cl)cc1Cl)c1ccccc1 to NC(=S)Nc1cccc2ccccc12, the melting point rises from 45.5 °C to 198 °C.

Compared with CC1=CCC(C(C)(C)O)CC1 (configuration not stated), c1ccc(N2CCOCC2)cc1 is higher in melting point: 37 °C for the first, 52.5 °C for the second.

Going from CCCOc1ccccc1OCC(O)CO (configuration not stated) to Nc1cccc2ncccc12, the melting point rises from 70 °C to 110 °C.

Going from CN(C)C(=S)SSC(=S)N(C)C to CCN(CC)c1ccccc1, the log10 Koc (L/kg) falls from 2.83 to 2.08.

ClC(Cl)=C(Cl)Cl gave a log10 Koc (L/kg) of 2.4.

Compared with CN(C)C(=S)SSC(=S)N(C)C, CCCCC(C)(C)O is higher in log10 vapour pressure (mmHg): -4.76 for the first, 0.317 for the second.

Compared with CCCCCC(C)=O, C=CC(=O)OCCCCCCCC is lower in log10 vapour pressure (mmHg): 0.586 for the first, -0.994 for the second.

Compared with Clc1c(Cl)c(Cl)c2c(c1Cl)Oc1c(Cl)c(Cl)c(Cl)c(Cl)c1O2, Cc1ccc(C(=O)COc2c(C(=O)c3ccc(Cl)c(C)c3Cl)c(C)nn2C)cc1 is higher in log10 vapour pressure (mmHg): -12.1 for the first, -7.01 for the second.

First: CCCCCCCCCCCCCCCCBr
Second: CCCCCCCCCCCCCCCCCCCCCCCCCCCCCCC
The log10 vapour pressure (mmHg) of the first is higher: -4.31 for the first, -10.9 for the second.

Going from Cc1c(N=C=O)cccc1N=C=O to Nc1cccc2ncccc12, the log10 vapour pressure (mmHg) falls from -1.68 to -4.77.

First: N#CC#N
Second: ClC(Cl)=C(Cl)Cl
The log10 vapour pressure (mmHg) of the first is higher: 3.63 for the first, 1.27 for the second.

Going from CC#Cc1cc(C)nc(Nc2ccccc2)n1 to c1ccc(CNc2[nH]cnc3ncnc2-3)cc1, the log10 vapour pressure (mmHg) falls from -6.76 to -10.7.

Going from CCN(CC)c1ccccc1 to CCC(C)[N+](=O)[O-] (configuration not stated), the log10 vapour pressure (mmHg) rises from -0.866 to 0.891.

Work on CC1=CCC(C(C)(C)O)CC1 (configuration not stated) yielded a log10 vapour pressure (mmHg) of -1.37.

With CN(C)C(=S)SSC(=S)N(C)C the ready biodegradability was “readily biodegradable”.
For CCCCCCCCCCCCCCCCBr, the ready biodegradability was “readily biodegradable”.
In the case of C=CC(=O)OCCCCCCCC, the ready biodegradability was “readily biodegradable”.
With ClC(Cl)=C(Cl)Cl the ready biodegradability was “not readily biodegradable”.
With C=CC(=O)OCCn1c(=O)n(CCOC(=O)C=C)c(=O)n(CCOC(=O)C=C)c1=O the ready biodegradability was “not readily biodegradable”.
In the case of CCN(CC)c1ccccc1, the ready biodegradability was “not readily biodegradable”.
In the case of Nc1ccc([N+](=O)[O-])cc1Cl, the ready biodegradability was “not readily biodegradable”.
With O=C(O)c1cccnc1 the ready biodegradability was “readily biodegradable”.
In the case of CC1=CCC(C(C)(C)O)CC1 (configuration not stated), the ready biodegradability was “readily biodegradable”.
In the case of O=C(O)CC(=O)O, the ready biodegradability was “readily biodegradable”.

Compared with CCCCCC(C)=O, CC1=CCC(C(C)(C)O)CC1 (configuration not stated) is lower in log10 Henry constant (atm·m³/mol): -3.77 for the first, -5.65 for the second.

Compared with ClC(Cl)=C(Cl)Cl, Nc1ccc([N+](=O)[O-])cc1Cl is lower in log10 Henry constant (atm·m³/mol): -1.75 for the first, -8.02 for the second.

Compared with CCCCCC(C)=O, ClC(Cl)=C(Cl)Cl is lower in log10 Koa: 4.15 for the first, 3.48 for the second.

Going from Clc1c(Cl)c(Cl)c2c(c1Cl)Oc1c(Cl)c(Cl)c(Cl)c(Cl)c1O2 to Clc1ccc(-c2c(Cl)c(Cl)c(Cl)c(Cl)c2Cl)c(Cl)c1, the log10 Koa falls from 12.1 to 10.5.

With CCCCCCCCCCCCCCCCCCCCCCCCCCCCCCC the log10 biodegradation half-life (days) was 2.44.

Source: the OPERA property sets (Mansouri et al. 2018)
